How the values were obtained:
AMBEL (Ragweed, Common) [1] = assay: Postemergence herbicidal evaluation; assay type: in vivo, Ambrosia artemisifolia; settings: postemergence
How it was run: (§1)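 Compound is applied as a foliar spray to seedlings about two weeks old, formulated in equal parts acetone and water with 0.5% TWEEN 20 and delivered at 40 psi to give about 0.0156–0.500 kg per hectare. Injury is rated visually 0–9 after four to five weeks.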

CASOB (Sicklepod) [2] = assay: Postemergence herbicidal evaluation; assay type: in vivo, Cassia obtusifolia; settings: postemergence
How it was run: as §1

[3] = tested on: CHEAL (Lambsquarters, Common); assay: Postemergence herbicidal evaluation; assay type: in vivo, Chenopodium album; settings: postemergence
How it was run: as §1

[4] = tested on: IPOHE (Morningglory, Ivyleaf); assay: Postemergence herbicidal evaluation; assay type: in vivo, Ipomoea hederacea; settings: postemergence
How it was run: as §1

ECHCG (Barnyardgrass) = assay: Postemergence herbicidal evaluation; assay type: in vivo, Echinochloa crus-galli; settings: postemergence
How it was run: as §1

[5] = tested on: GLXMAW (Soybean, Williams); assay: Postemergence herbicidal evaluation; assay type: in vivo, Glycine max, (L.) Merr. cv Williams; settings: postemergence
How it was run: as §1

[6] = tested on: TRZAWR (Wheat, Winter, cv Riband); assay: Postemergence herbicidal evaluation; assay type: in vivo, Triticum aestivum; settings: postemergence
How it was run: as §1

ABUTH (Velvetleaf) = assay: Preemergence herbicidal evaluation; assay type: in vivo, Abutilon theophrasti; settings: rated 4-5 weeks after treatment, rating scale 0-9
How it was run: (§2)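 In this greenhouse assay, monocot and dicot seeds are planted in soil and treated prior to emergence with an aqueous acetone spray (about 0.0156-0.500 kg/ha). Plants are assessed visually against control on a 0-9 scale after 4-5 weeks.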

AMBEL (Ragweed, Common) [7] = assay: Preemergence herbicidal evaluation; assay type: in vivo, Ambrosia artemisifolia; settings: rated 4-5 weeks after treatment, rating scale 0-9
How it was run: as §2

CASOB (Sicklepod) [8] = assay: Preemergence herbicidal evaluation; assay type: in vivo, Cassia obtusifolia; settings: rated 4-5 weeks after treatment, rating scale 0-9
How it was run: as §2

[9] = tested on: CHEAL (Lambsquarters, Common); assay: Preemergence herbicidal evaluation; assay type: in vivo, Chenopodium album; settings: rated 4-5 weeks after treatment, rating scale 0-9
How it was run: as §2

[10] = tested on: IPOHE (Morningglory, Ivyleaf); assay: Preemergence herbicidal evaluation; assay type: in vivo, Ipomoea hederacea; settings: rated 4-5 weeks after treatment, rating scale 0-9
How it was run: as §2

[11] = tested on: GLXMAW (Soybean, Williams); assay: Preemergence herbicidal evaluation; assay type: in vivo, Glycine max, (L.) Merr. cv Williams; settings: rated 4-5 weeks after treatment, rating scale 0-9
How it was run: as §2

ORYSAT (Rice, Tebonnet) = assay: Preemergence herbicidal evaluation; assay type: in vivo, Oryza sativa, (L.) Tebonnet; settings: rated 4-5 weeks after treatment, rating scale 0-9
How it was run: as §2

MOOVA (Monochoria) = assay: Preemergence weed control under flooded paddy conditions; assay type: in vivo, Monochoria vaginalis; settings: 0.2500 kg/ha, rated 3-4 weeks after treatment
How it was run: (§3)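 First, seeds or propagules go into the top 0.5 cm of silt loam; next, water is held 1.5 to 3 cm over the soil; then compound (50/50 acetone/water) is pipetted into it at about 0.0313 to 0.500 kg/ha; finally plants are rated visually 0-9 after three to four weeks.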

[12] = tested on: SAGPY (Arrowhead (Pygmaea)); assay: as above; assay type: in vivo, Sagittaria pygmaea; settings: 0.2500 kg/ha, rated 3-4 weeks after treatment
How it was run: as §3

## CCOC(=O)CN1C(=O)C(COC)SC1=Nc1cc(-n2c(=O)cc(C(F)(F)F)n(C)c2=O)c(F)cc1Cl (centres unmarked) [Compound 156, Ethyl 2-{{2-chloro-5-[3,6-dihydro-3-methyl-2,6-dioxo-4-(trifluoromethyl)-1(2H)-pyrimidinyl]-4-fluorophenyl}imino}-5-(methoxymethyl)-4-oxo-3-thiazolidine-acetate]
AMBEL (Ragweed, Common) [1]; rate 0.0156 kg/ha
  Herbicidal rating AMBEL: 7.0
AMBEL (Ragweed, Common) [1]; rate 0.0313 kg/ha
  Herbicidal rating AMBEL: 7.0
AMBEL (Ragweed, Common) [1]; rate 0.0625 kg/ha
  Herbicidal rating AMBEL: 9.0
CASOB (Sicklepod) [2]; rate 0.0156 kg/ha
  Herbicidal rating CASOB: 0.0
CASOB (Sicklepod) [2]; rate 0.0313 kg/ha
  Herbicidal rating CASOB: 0.0
CASOB (Sicklepod) [2]; rate 0.0625 kg/ha
  Herbicidal rating CASOB: 1.0
[3]; rate 0.0156 kg/ha
  Herbicidal rating CHEAL: 9.0
[3]; rate 0.0313 kg/ha
  Herbicidal rating CHEAL: 9.0
[3]; rate 0.0625 kg/ha
  Herbicidal rating CHEAL: 9.0
[4]; rate 0.0156 kg/ha
  Herbicidal rating IPOHE: 9.0
[4]; rate 0.0313 kg/ha
  Herbicidal rating IPOHE: 9.0
[4]; rate 0.0625 kg/ha
  Herbicidal rating IPOHE: 9.0
ECHCG (Barnyardgrass); rate 0.0156 kg/ha
  Herbicidal rating ECHCG: 0.0
ECHCG (Barnyardgrass); rate 0.0313 kg/ha
  Herbicidal rating ECHCG: 0.0
ECHCG (Barnyardgrass); rate 0.0625 kg/ha
  Herbicidal rating ECHCG: 0.0
[5]; rate 0.0156 kg/ha
  Herbicidal rating GLXMAW: 5.5
[5]; rate 0.0313 kg/ha
  Herbicidal rating GLXMAW: 4.0
[5]; rate 0.0625 kg/ha
  Herbicidal rating GLXMAW: 5.5
[6]; rate 0.0156 kg/ha
  Herbicidal rating TRZAWR: 3.0
[6]; rate 0.0313 kg/ha
  Herbicidal rating TRZAWR: 3.5
[6]; rate 0.0625 kg/ha
  Herbicidal rating TRZAWR: 4.0
ABUTH (Velvetleaf); rate 0.0313 kg/ha
  Preemergence herbicidal rating ABUTH: 4.0
ABUTH (Velvetleaf); rate 0.0625 kg/ha
  Preemergence herbicidal rating ABUTH: 9.0
ABUTH (Velvetleaf); rate 0.1250 kg/ha
  Preemergence herbicidal rating ABUTH: 9.0
ABUTH (Velvetleaf); rate 0.2500 kg/ha
  Preemergence herbicidal rating ABUTH: 9.0
AMBEL (Ragweed, Common) [7]; rate 0.0313 kg/ha
  Preemergence herbicidal rating AMBEL: 0.0
AMBEL (Ragweed, Common) [7]; rate 0.0625 kg/ha
  Preemergence herbicidal rating AMBEL: 0.0
AMBEL (Ragweed, Common) [7]; rate 0.1250 kg/ha
  Preemergence herbicidal rating AMBEL: 5.0
AMBEL (Ragweed, Common) [7]; rate 0.2500 kg/ha
  Preemergence herbicidal rating AMBEL: 9.0
CASOB (Sicklepod) [8]; rate 0.0313 kg/ha
  Preemergence herbicidal rating CASOB: 0.0
CASOB (Sicklepod) [8]; rate 0.0625 kg/ha
  Preemergence herbicidal rating CASOB: 0.0
CASOB (Sicklepod) [8]; rate 0.2500 kg/ha
  Preemergence herbicidal rating CASOB: 0.0
[9]; rate 0.0313 kg/ha
  Preemergence herbicidal rating CHEAL: 9.0
[9]; rate 0.0625 kg/ha
  Preemergence herbicidal rating CHEAL: 9.0
[9]; rate 0.1250 kg/ha
  Preemergence herbicidal rating CHEAL: 9.0
[9]; rate 0.2500 kg/ha
  Preemergence herbicidal rating CHEAL: 9.0
[10]; rate 0.0313 kg/ha
  Preemergence herbicidal rating IPOHE: 0.0
[10]; rate 0.0625 kg/ha
  Preemergence herbicidal rating IPOHE: 3.0
[10]; rate 0.1250 kg/ha
  Preemergence herbicidal rating IPOHE: 9.0
[10]; rate 0.2500 kg/ha
  Preemergence herbicidal rating IPOHE: 9.0
[11]; rate 0.0313 kg/ha
  Preemergence herbicidal rating GLXMAW: 0.0
[11]; rate 0.0625 kg/ha
  Preemergence herbicidal rating GLXMAW: 0.0
[11]; rate 0.1250 kg/ha
  Preemergence herbicidal rating GLXMAW: 0.0
[11]; rate 0.2500 kg/ha
  Preemergence herbicidal rating GLXMAW: 7.0
ORYSAT (Rice, Tebonnet); rate 0.0313 kg/ha
  Preemergence herbicidal rating ORYSAT: 0.0
ORYSAT (Rice, Tebonnet); rate 0.0625 kg/ha
  Preemergence herbicidal rating ORYSAT: 0.0
ORYSAT (Rice, Tebonnet); rate 0.1250 kg/ha
  Preemergence herbicidal rating ORYSAT: 0.0
ORYSAT (Rice, Tebonnet); rate 0.2500 kg/ha
  Preemergence herbicidal rating ORYSAT: 3.0
MOOVA (Monochoria)
  herbicidal effect rating, MOOVA: 0.0
[12]
  herbicidal effect rating, SAGPY: 0.0
